According to US20240269104A1, “METHOD FOR TREATING PARKINSON'S DISEASE” (Olatec Therapeutics, Inc., priority 2021, published 2024):

What was measured:
[1] = test system: MPTP-injected-mouse model of PD; experiment: accelerating rotarod test after MPTP-acute administration; assay type: in vivo, C56BL/J mice; conditions: anakinra 20 mg/kg intraperitoneal 30 minutes before MPTP; day 3
Experimental: MPTP (Sigma-Aldrich, St. Louis, MO) can be administered at two dose regimens: acute and sub-acute. For the acute regimen, MPTP was administered intraperitoneally (i.p.) four times in one day. Administrations were performed every two hours over an eight-hour period. For the subacute regimen, mice received a single i.p. administration of MPTP per day for five consecutive days. A 20 mg/kg free-base MPTP dose was used for every dose in both models. Sterile saline was used as the vehicle. Control mice were injected with saline solution using the same administration protocol and were defined as sham. Mice were sacrificed at different days after the first injection of MPTP. We used the acute protocol in C56BL/J mice to study dopamine neurodegeneration, inflammation, and motor deficits, whereas the subacute model was used to evaluate α-synuclein aggregation in the following examples. […]
The accelerating rotarod (Ugo Basile, Gemonio, ITALY) was used to evaluate locomotor function in mice subjected to the MPTP-acute administration. An accelerating program was selected to detect locomotor impairments associated to MPTP (Keshet et al, J Comp Neurol 504:690-701, 2007; Rui et al., Int J Neuropsychopharmacol., 2020). We used a rotarod device with a cylinder rod of three centimeters in diameter. The mice underwent a training period of three consecutive days prior to MPTP administration. In each training session, mice were subjected to run at four constant speeds (10 rpm, 20 rpm, 30 rpm, and 40 rpm) for 150 seconds at each speed. If mice fell during that time, they were put back in the rotarod immediately. On the testing day, we used an increased-speed program. Mice were placed on the rotarod device for 150 seconds at 30 rpm as warm up. Immediately after 150 seconds, the accelerating session started, and the speed increased from 30 rpm to 70 rpm for 500 seconds. Time to fall was recorded. Accelerating sessions were repeated three times with a resting interval of five minutes between sessions. Average time to fall per mouse was calculated and used as final measurement.
We then evaluated the effect of dapansutrile. To avoid overloading animals with fluid (which can lead to fatal heart failure), dapansutrile was administered through oral gavage at 200 mg/kg in water. Dapansutrile was given 30 minutes before the first injection of MPTP. Mice treated with saline were used as control. We also included a sham-group that received saline through intraperitoneal injections instead of MPTP. […]

[2] = in vivo; cited from earlier work

Substance: anakinra: Interleukin-1 receptor antagonist (IL-1Ra), 17.3 kDa; differs from native human IL-1Ra by an added amino-terminal methionine and absence of glycosylation [reference compound]
- rotarod latency to fall versus control mice treated with saline [1]: the same latency to fall
- CSF penetration [2]: 0.2-0.3%
